Experiments:
[1] = test system: C57BL/6J mice fed with a high-fat diet; test: Amounts of subcutaneous fat and visceral fat in dietary-induced obesity mouse model; format: in vivo; conditions: 85 days, relative to increase in control group over normal group
Method: For each individual of the male C57BL/6J mice after lapse of 85 days into the test of Example 9, blood was collected under anesthesia with 2% isoflurane, and the mice were then euthanized. Inguinal subcutaneous fat, epididymal fat, perirenal fat, and mesenteric fat were collected from each individual. The weight of each fat was measured, and the average fat weights of each test group were determined.
The ordinate of the drawing depicts the measured weight (g) of each fat tissue. Each bar of the bar graph indicates the normal group, the control group, the 5H4PB 0.037 μg/kg/day administration group, the 5H4PB 0.01 mg/kg/day administration group, the rosiglitazone 0.037 μg/kg/day administration group, and the rosiglitazone 10 mg/kg/day administration group from the left to the right. […] Specifically, increase in the amount of each fat tissue was inhibited by approximately 35% for the inguinal subcutaneous fat, approximately 18% for the epididymal fat, approximately 13% for the perirenal fat, and approximately 16% for the mesenteric fat in the test group administered 0.037 μg/kg/day of 5H4PB, while increase in the amount of each fat tissue was inhibited by approximately 34% for the inguinal subcutaneous fat, approximately 15% for the epididymal fat, approximately 13% for the perirenal fat, and approximately 40% for the mesenteric fat in the test group administered 0.01 […] of 5H4PB, with respect to the amount of each fat tissue increased in the control group due to the high-calorie diet (the value determined by subtracting the fat tissue weight of the normal group from the fat tissue weight of the control group). Thus, 5H4PB administered at a low dose was confirmed to have subcutaneous fat and visceral fat accumulation inhibitory effects.

[2] = test system: C57BL/6J mice fed with a high-fat diet; test: Adiponectin in blood of dietary-induced obesity mouse model; format: in vivo; conditions: 85 days, FIG. 15
Source text: Adiponectin is a secretory protein related to dysmetabolic syndrome such as insulin resistance, diabetes mellitus or arteriosclerosis. Adiponectin-deficient mice have the properties of being more likely to develop insulin resistance and being more likely to be affected by arteriosclerosis than wild-type mice. In humans as well, it is known that lowered adiponectin concentrations are related to dysmetabolic syndrome such as diabetes mellitus and arteriosclerosis. Thus, the dietary-induced obesity mouse models of Example 9 were subjected to the test of measuring the amount of adiponectin in blood.
For each individual of the male C57BL/6J mice after a lapse of 85 days into the test of Example 9, blood was collected from the abdominal vena cava using a syringe supplemented with heparin under anesthesia with 2% isoflurane. The amount of blood collected was set to approximately 0.8 mL. The collected blood was stored under ice cooling until centrifugation. After centrifugation (conditions: 4° C., approximately 1800×g, 10 min), the upper layer was recovered to obtain plasma. The plasma was dispensed to sampling tubes and cryopreserved until measurement. The mouse adiponectin concentration contained in the mouse plasma obtained from each individual was measured using a commercially available ELISA kit, and the average adiponectin concentration of each test group was determined. […]

[3] = test system: C57BL/6J mice fed with a high-fat diet; test: Anti-obesity effect (body weight) on dietary-induced obesity mouse model; format: in vivo; conditions: 12 weeks; for body weight gain inhibited, with respect to the body weight gain of the control group attributed to the high-calorie diet: once a day into the stomach, 84th day
Method: The 5H4PB obtained in Example 6 administered to mice fed with a high-fat diet to verify its anti-obesity effect. Five-week-old male C57BL/6J mice (supplied by Charles River Laboratories Japan, Inc.) were individually raised (one per cage) under environmental conditions involving a temperature of 20 to 26° C., a humidity of 35 to 75%, and 12-hour illumination (7:00 to 19:00). After acclimatization for approximately 1 week, the mice were divided into 6 groups each involving 6 to 8 individuals. Of the test groups, a normal group was fed with a normal solid diet CRF1 (a product of Oriental Yeast Co., Ltd., 3.57 kcal/g) during the test period, and a control group and drug administration groups were fed with a high-calorie solid diet D12492 (a product of Research Diets, Inc., 5.24 kcal/g) during the test period. The diets were freely taken, and water was also freely taken from water supply bottles.
The test substance 5H4PB (produced in Example 6) or a positive control substance rosiglitzaone (a product of Wako Pure Chemical Industries, Ltd.) was administered once a day for 12 weeks at the predetermined dose shown in Table 2 to the mice in each drug administration group. The rosiglitazone is a selective PPARγ ligand and is a substance having the effect of lowering the concentrations of glucose, fatty acid, and insulin in blood through binding to PPARγ. For the administration, body weight measurement was carried out once a week to calculate the dose to each individual. 5H4PB and rosiglitazone were each suspended in a 0.5 w/v % aqueous methylcellulose solution and diluted with the same aqueous solution to adjust the administration dose to 10 mL/kg. Then, each substance was forced-administered into the stomach using a syringe and a flexible stomach tube. […]
From the start of the test (administration), the body weight of each individual was measured at a frequency of once a week, and the average body weight of each test group was determined. […]

[4] = test system: liver (hepatocytes) of C57BL/6J mice fed with a high-fat diet; test: Influence of administration on liver tissue (histopathological examination); format: in vivo, mouse; conditions: for deposition of fat droplets in the hepatocytes: 12 weeks, high-fat diet
Source text: In Example 13, the liver was collected during the collection of fat tissues from each individual and histopathologically examined. The findings from the histopathological examination were as described below.
For the individuals of the normal group, the deposition of fat droplets was not observed in the hepatocytes, whereas only the very mild infiltration of inflammatory cells was observed.

[5] = test system: C57BL/6J mice fed with a high-fat diet; test: Leptin in blood of dietary-induced obesity mouse model; format: in vivo; conditions: 0.037 μg/kg/day and 0.01 mg/kg/day; 85 days; FIG. 17
Method: For each individual of the male C57BL/6J mice after a lapse of 85 days into the test of Example 9, blood was collected from the abdominal vena cava using a syringe supplemented with heparin under anesthesia with 2% isoflurane. The amount of blood collected was set to approximately 0.8 mL. The collected blood was stored under ice cooling until centrifugation. After centrifugation (conditions: 4° C., approximately 1800×g, 10 min), the upper layer was recovered to obtain plasma. The plasma was dispensed to sampling tubes and cryopreserved until measurement. The mouse adiponectin concentration contained in the mouse plasma obtained from each individual was measured using a commercially available ELISA kit, and the average adiponectin concentration of each test group was determined.
Leptin is a protein hormone that regulates appetite and metabolism. The leptin concentration in blood is known to elevate due to obesity, resulting in leptin resistance. In Example 10, the amount of mouse leptin contained in the mouse plasma obtained from each individual was measured using a commercially available ELISA kit, and the average leptin concentration of each test group was determined. The ordinate of the drawing depicts the leptin concentration (pg/mL) in the mouse plasma. The test group indicated by each bar of the bar graph is the same as in FIGS. 15 and 16 mentioned above.

[6] = 0.01 μg/kg/day (so in the source)

## O=C1C=C(c2ccccc2)C(O)O1 (centres unmarked) [5H4PB, 5-hydroxy-4-phenylbutenolide]
[1]; [6]
  increase in the amount of epididymal fat inhibited: approximately 15%
  increase in the amount of inguinal subcutaneous fat inhibited: approximately 34%
  increase in the amount of mesenteric fat inhibited: approximately 40%
  increase in the amount of perirenal fat inhibited: approximately 13%
[1]; 0.037 μg/kg/day
  increase in the amount of epididymal fat inhibited: approximately 18%
  increase in the amount of inguinal subcutaneous fat inhibited: approximately 35%
  increase in the amount of mesenteric fat inhibited: approximately 16%
  increase in the amount of perirenal fat inhibited: approximately 13%
[2]; 0.01 mg/kg/day
  adiponectin concentration in mouse plasma compared with the control group (t test): significant rise in adiponectin concentration
[2]; 5H4PB administration groups (0.037 μg/kg/day and 0.01 mg/kg/day)
  adiponectin concentration in mouse plasma compared with the control group: confirmed to elevate
[3]; 0.037 μg/kg/day and 0.01 mg/kg/day
  anti-obesity effect (overall): high anti-obesity effect
[3]; 0.037 μg/kg/day
  body weight gain inhibited, with respect to the body weight gain of the control group attributed to the high-calorie diet: 25.8%
[3]; 0.01 mg/kg/day
  body weight gain inhibited, with respect to the body weight gain of the control group attributed to the high-calorie diet: 27.8%
[4]; 0.037 μg/kg/day
  deposition of fat droplets in the hepatocytes: no or only weak depositions of fat droplets
[4]; 0.01 mg/kg/day
  deposition of fat droplets in the hepatocytes: no or only weak depositions of fat droplets
[4]; compared with the rosiglitazone administration groups or the control group
  hepatic damage (histopathological findings): free from hepatic damage
[5]
  leptin concentration in mouse plasma compared with the control group: inhibition of a rise in leptin concentration was confirmed in a dose-dependent manner
